The record followed here is patent publication US9718790B2, “Triazine derivative and pharmaceutical composition having an analgesic activity comprising the same” (SHIONOGI & CO., LTD., priority 2010, dated 2017).

The target in this experiment is human P2X3 receptor (Homo sapiens (Human), UniProt P56373). Put plainly: Evaluation of human P2X3 receptor inhibitory activity (Fluo-3 calcium fluorescence, FDSS 3000, ATP stimulation).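 Note: stimulus was 50 nM ATP with fluorescence followed for 3 min, and the response per well was peak post-ATP fluorescence divided by the reading at measurement start.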 The note with it: C6BU-1 cells stably expressing human P2X3 receptor, Fluo-3 fluorescence, FDSS 3000. Type of experiment: cell-based.
Sequence of human P2X3 receptor (P56373 whole entry): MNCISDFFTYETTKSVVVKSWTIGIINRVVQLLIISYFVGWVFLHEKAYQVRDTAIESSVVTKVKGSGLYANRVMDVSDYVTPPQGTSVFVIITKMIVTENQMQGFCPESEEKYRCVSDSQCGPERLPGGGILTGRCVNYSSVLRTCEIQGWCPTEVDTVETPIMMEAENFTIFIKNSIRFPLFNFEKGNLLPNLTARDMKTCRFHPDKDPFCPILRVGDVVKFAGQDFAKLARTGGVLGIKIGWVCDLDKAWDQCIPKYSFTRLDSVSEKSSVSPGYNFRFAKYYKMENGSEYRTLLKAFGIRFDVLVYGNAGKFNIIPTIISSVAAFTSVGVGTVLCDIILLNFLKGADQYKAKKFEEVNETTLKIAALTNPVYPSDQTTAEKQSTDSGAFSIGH

What is called IC50 is the point on the concentration scale where inhibition reaches its midpoint.

Take `C[C@@H](C(=O)O)[C@H](C)n1c(=O)[nH]/c(=N\c2ccc3c(c2)CCC3=O)n(Cc2ccc(Cl)cc2)c1=O` [Compound I-1830]: the IC50 was determined as 869 nM. Then `C[C@@H](C(=O)O)[C@H](C)n1c(=O)[nH]/c(=N\c2ccc3c(c2)C(=O)CC3)n(Cc2ccc(Cl)cc2)c1=O` [Compound I-1831], with 739 nM.

Turning to `C[C@@H](C(=O)O)[C@H](C)n1c(=O)[nH]/c(=N\c2ccc3cc(Br)ccc3c2)n(Cc2ccc(Cl)cc2)c1=O` [Compound I-1832], the IC50 is 32 nM. Next, `C[C@@H](C(=O)O)[C@H](C)n1c(=O)[nH]/c(=N\c2ccc3c(c2)CCO3)n(Cc2ccc(Cl)cc2)c1=O` [Compound I-1833]: 580 nM. Regarding `C[C@@H](C(=O)O)[C@H](C)n1c(=O)[nH]/c(=N\c2ccc3ncccc3c2)n(Cc2ccc(Cl)cc2)c1=O` [Compound I-1834], the IC50 came out at 325 nM.

Take `Cc1cc(Oc2ccc(/N=c3\[nH]c(=O)n(CCCO)c(=O)n3Cc3ccc(Cl)cc3)cc2)no1` [Compound I-1835]: the half-inhibitory concentration (IC50) was 8 nM. On to `COC(=O)CCn1c(=O)[nH]/c(=N\c2cc(C(=O)OC)n(C)c2)n(Cc2ccc(C)cc2)c1=O` [Compound I-1836], for which the IC50 was 787 nM. Consider `Cc1ccc(Cn2c(=O)n(CCC(=O)O)c(=O)[nH]/c2=N\c2cn(C)nc2C(=O)NC(C)C)cc1` [Compound I-1839], for which the IC50 was found to be 107 nM. For the compound `CCc1oc2ccc(/N=c3\[nH]c(=O)n(CC4COC(C)(C)OC4)c(=O)n3Cc3ccc(Cl)cc3)cc2c1C` [Compound I-1840], the IC50 is 7 nM. `CC1(C)OCC(Cn2c(=O)[nH]/c(=N\c3ccc(OCC4CC4)cc3)n(Cc3ccc(Cl)cc3)c2=O)CO1` [Compound I-1841]: the IC50 was found to be 6 nM. Next, `CCc1oc2ccc(/N=c3\[nH]c(=O)n(CC(CO)CO)c(=O)n3Cc3ccc(Cl)cc3)cc2c1C` [Compound I-1842]: 5 nM. Next, `COc1ccc(Oc2ccc(/N=c3\[nH]c(=O)n(CC(CO)CO)c(=O)n3Cc3ccc(Cl)cc3)cc2)cn1` [Compound I-1843]: 4 nM; `CCn1c(=O)[nH]/c(=N\c2ccc(Oc3ccnc(CO)c3)cc2)n(Cc2ccc(Cl)cc2)c1=O` [Compound I-1844]: 4 nM. On to `C[C@@H](Oc1ccc(/N=c2\[nH]c(=O)n(C[C@H](O)CO)c(=O)n2Cc2ccc(Cl)cc2)cc1)C(F)(F)F` [Compound I-1845], for which the IC50 was 33 nM. Then `CNC(=O)c1cc(Oc2ccc(/N=c3\[nH]c(=O)[nH]c(=O)n3Cc3ccc(Cl)cc3)cc2)ccn1` [Compound I-1846], with 15 nM.

Regarding `CCn1c(=O)[nH]/c(=N\c2ccc(Oc3ccc(OC)nc3)cc2)n(Cc2ccc(Cl)cc2)c1=O` [Compound I-1847], the IC50 came to 6 nM. Then `CCn1c(=O)[nH]/c(=N\c2ccc(Oc3ccc(O)nc3)cc2)n(Cc2ccc(Cl)cc2)c1=O` [Compound I-1848], with 14 nM; and `CC(=O)OCC(CO)CCn1c(=O)[nH]/c(=N\c2ccc3nc(C)sc3c2)n(Cc2ccc(Cl)cc2)c1=O` (stereo not drawn) [Compound I-1851], with 4 nM.

Consider `Cc1nc2ccc(/N=c3\[nH]c(=O)n(CCC4COC(C)(C)OC4)c(=O)n3Cc3ccc(Cl)cc3)cc2s1` [Compound I-1852], for which the IC50 was 5 nM. For `Cc1nc2ccc(/N=c3\[nH]c(=O)n(CCC(CO)CO)c(=O)n3Cc3ccc(Cl)cc3)cc2s1` [Compound I-1853], the IC50 was 4 nM. Next, `CC1(C)OC[C@H](Cn2c(=O)[nH]/c(=N\c3ccc(OCC4CC4)cc3)n(Cc3ccc(Cl)cc3)c2=O)O1` [Compound I-1854]: 4 nM; `O=c1[nH]/c(=N\c2ccc(OCC3CC3)cc2)n(Cc2ccc(Cl)cc2)c(=O)n1C[C@H](O)CO` [Compound I-1855]: 21 nM. Take `COc1ccc(Oc2ccc(/N=c3\[nH]c(=O)n(CC(N)=O)c(=O)n3Cc3ccc(Cl)cc3)cc2)cn1` [Compound I-1856]: the IC50 is 8 nM.

As for `CNC(=O)Cn1c(=O)[nH]/c(=N\c2ccc(Oc3ccc(OC)nc3)cc2)n(Cc2ccc(Cl)cc2)c1=O` [Compound I-1857], the IC50 came to 7 nM. For `COc1ccc(Oc2ccc(/N=c3\[nH]c(=O)n(CC(=O)NCCO)c(=O)n3Cc3ccc(Cl)cc3)cc2)cn1` [Compound I-1858], the IC50 worked out at 5 nM. With `CCn1c(=O)[nH]/c(=N\c2ccc(Oc3cc(OC)ncn3)cc2)n(Cc2ccc(Cl)cc2)c1=O` [Compound I-1859], the IC50 was found to be 5 nM. For `CCOC(=O)CCn1c(=O)[nH]/c(=N\c2ccc(OC(C)C)c(F)c2)n(CC2C[C@H]3CC[C@@H]2C3)c1=O` (stereo partly drawn) [Compound I-1860], the IC50 worked out at 150 nM. Consider `CC(C)Oc1ccc(/N=c2\[nH]c(=O)n(CCC(=O)O)c(=O)n2CC2C[C@H]3CC[C@@H]2C3)cc1F` (stereo partly drawn) [Compound I-1862], for which the IC50 was 552 nM.

`CCn1c(=O)[nH]/c(=N\c2ccc(Oc3cncc(C(=O)OC)c3)cc2)n(Cc2ccc(Cl)cc2)c1=O` [Compound I-1863]: the IC50 is 5 nM. Next, `CCOc1ccc(Cc2nc(=O)n(C[C@H](C)C(=O)OC)c(=O)n2Cc2ccc(Cl)cc2)cc1` [Compound I-1864]: 186 nM; `COC(=O)[C@@H](C)Cn1c(=O)nc(Cc2ccccc2C)n(Cc2ccc(Cl)cc2)c1=O` [Compound I-1865]: 357 nM. `COC(=O)[C@@H](C)Cn1c(=O)nc(Cc2ccc(OC)c(F)c2)n(Cc2ccc(Cl)cc2)c1=O` [Compound I-1869]: the IC50 worked out at 328 nM. In the case of `CCn1c(=O)[nH]/c(=N\c2ccc(Oc3ccc(C(N)=O)cc3)cc2)n(Cc2ccc(Cl)cc2)c1=O` [Compound I-1870], the IC50 is 4 nM. Then `CCn1c(=O)[nH]/c(=N\c2ccc(Oc3ccc(NC(C)=O)cc3)cc2)n(Cc2ccc(Cl)cc2)c1=O` [Compound I-1871], with 6 nM; and `CCOC(=O)CCn1c(=O)[nH]/c(=N\c2ccc(Oc3ccc(F)cc3)cc2)n(Cc2ccc(Cl)cc2)c1=O` [Compound I-1872], with 15 nM.

Turning to `COC(=O)CCCCn1c(=O)[nH]/c(=N\c2ccc(OC(C)C)c(Cl)c2)n(Cc2ccc(C)cc2)c1=O` [Compound I-1873], the IC50 was found to be 2 nM. In the case of `Cc1ccc(Cn2c(=O)n(CCC(=O)NS(C)(=O)=O)c(=O)[nH]/c2=N\c2ccc(OC(C)C)c(Cl)c2)cc1` [Compound I-1874], the IC50 was determined as 13 nM.

In the case of `CCc1nc2ccc(/N=c3\[nH]c(=O)n(CCC(=O)NS(C)(=O)=O)c(=O)n3Cc3ccc(Cl)cc3)cc2s1` [Compound I-1875], the IC50 worked out at 13 nM. Next, `CC(C)Oc1ccc(/N=c2\[nH]c(=O)n(CC(=O)NS(C)(=O)=O)c(=O)n2Cc2ccc(Cl)cc2)cc1Cl` [Compound I-1876]: 35 nM. As for `O=C(O)CCn1c(=O)[nH]/c(=N\c2ccc(Oc3ccc(F)cc3)cc2)n(Cc2ccc(Cl)cc2)c1=O` [Compound I-1877], the IC50 turned out to be 36 nM. In the case of `Cc1ccc(Cn2c(=O)n(CCCCC(=O)O)c(=O)[nH]/c2=N\c2ccc(OC(C)C)c(Cl)c2)cc1` [Compound I-1878], the IC50 turned out to be 10 nM. Turning to `COC(=O)c1cc(/N=c2\[nH]c(=O)n(CCC(=O)O)c(=O)n2Cc2ccc(C)cc2)cn1C` [Compound I-1879], the IC50 stood at 128 nM. Next, `CCn1c(=O)[nH]/c(=N\c2ccc(Oc3cccc(C(=O)OC)c3)cc2)n(Cc2ccc(Cl)cc2)c1=O` [Compound I-1880]: 15 nM; `CCn1c(=O)[nH]/c(=N\c2ccc(Oc3cccc(C(=O)O)c3)cc2)n(Cc2ccc(Cl)cc2)c1=O` [Compound I-1881]: 6 nM; `C[C@@H](Oc1ccc(/N=c2\[nH]c(=O)n(CC(CO)CO)c(=O)n2Cc2ccc(Cl)cc2)cc1)C(F)(F)F` [Compound I-1882]: 16 nM.

With `O=C(O)c1cc(Oc2ccc(/N=c3\[nH]c(=O)[nH]c(=O)n3Cc3ccc(Cl)cc3)cc2)ccn1` [Compound I-1883], the IC50 came to 7 nM.

On to `CCOC(=O)CCn1c(=O)[nH]/c(=N\c2ccc(OC(C)C)c(F)c2)n(CC2CCC(F)(F)CC2)c1=O` [Compound I-1884], for which the IC50 came out at 296 nM. Regarding `CCn1c(=O)[nH]/c(=N\c2ccc(Oc3cncc(C(=O)O)c3)cc2)n(Cc2ccc(Cl)cc2)c1=O` [Compound I-1885], the IC50 turned out to be 7 nM. Regarding `CCOc1ccc(/N=c2\[nH]c(=O)n(CC3COC(C)(C)OC3)c(=O)n2Cc2ccc(Cl)cc2)cc1Cl` [Compound I-1886], the IC50 amounted to 3 nM.

In the case of `CCOc1ccc(/N=c2\[nH]c(=O)n(C[C@H]3COC(C)(C)O3)c(=O)n2Cc2ccc(Cl)cc2)cc1Cl` [Compound I-1887], the IC50 was found to be 3 nM. Regarding `CCn1c(=O)[nH]/c(=N\c2ccc(Oc3cc(O)ncn3)cc2)n(Cc2ccc(Cl)cc2)c1=O` [Compound I-1888], the concentration for half-maximal inhibition (IC50) is 10 nM. With `CCn1c(=O)[nH]/c(=N\c2ccc(Oc3cccc(CC(=O)OC)c3)cc2)n(Cc2ccc(Cl)cc2)c1=O` [Compound I-1889], the IC50 worked out at 23 nM. Then `COC(=O)CCn1c(=O)[nH]/c(=N\c2ccccc2NC(C)=O)n(Cc2ccc(C)cc2)c1=O` [Compound I-1892], with 113 nM; and `COC(=O)CCn1c(=O)[nH]/c(=N\c2cc(-c3ccncc3)c[nH]c2=O)n(Cc2ccc(C)cc2)c1=O` [Compound I-1893], with 178 nM; and `CCn1c(=O)[nH]/c(=N\c2ccc(Oc3cccc(CC(=O)O)c3)cc2)n(Cc2ccc(Cl)cc2)c1=O` [Compound I-1894], with 23 nM. On to `NC(=O)c1cc(Oc2ccc(/N=c3\[nH]c(=O)[nH]c(=O)n3Cc3ccc(Cl)cc3)cc2)ccn1` [Compound I-1896], for which the IC50 turned out to be 14 nM. Next, `O=C(NCCO)c1cc(Oc2ccc(/N=c3\[nH]c(=O)[nH]c(=O)n3Cc3ccc(Cl)cc3)cc2)ccn1` [Compound I-1897]: 24 nM; `O=C(NCC(F)(F)F)c1cc(Oc2ccc(/N=c3\[nH]c(=O)[nH]c(=O)n3Cc3ccc(Cl)cc3)cc2)ccn1` [Compound I-1898]: 11 nM. Take `Cc1cc(/N=c2\[nH]c(=O)n(CC3COC(C)(C)OC3)c(=O)n2Cc2ccc(Cl)cc2)ccc1OC(C)C` [Compound I-1899]: the IC50 is 4 nM. As for `NC(=O)Cn1c(=O)[nH]/c(=N\c2ccc(Oc3ccc(O)nc3)cc2)n(Cc2ccc(Cl)cc2)c1=O` [Compound I-1900], the IC50 was 16 nM.
